In ChEMBL document CHEMBL5113440, “Optimization of clofibrate with O-desmethyl anetholtrithione lead to a novel hypolipidemia compound with hepatoprotective effect” (Bioorg Med Chem Lett, 2022) one finds Activity data, which are given here for 2 compounds.

Calls of active or inactive are those of the source. No cut-off for these calls is given here.

Series [1] deals with Mus musculus. Nature of the series: Hypolipidemic activity in Triton-WR-1339 induced hyperlipidemic KM mouse model assessed as reduction in plasma TG level administered intragastrically via gavage for 7 days. The format is functional, organism-based. The following applies: dose 0.029-0.267 mmol/Kg, route ig, time 7.0 day, DDE = dose-dependent effect.
Series [2] concerns Mus musculus. Nature of the series: Hypolipidemic activity in Triton-WR-1339 induced hyperlipidemic KM mouse model assessed as reduction in plasma TC level administered intragastrically via gavage for 7 days. The settings on record: dose 0.029-0.267 mmol/Kg, route ig, time 7.0 day, DDE = dose-dependent effect. The format is functional, organism-based.
A short description of series [3]: Toxicity in KM mouse assessed as reduction in body weight at 1.65 mmol/Kg, IG administered via gavage measured for 1 month. The settings on record: in vivo, po, 730 h, time 1 months.
Series [4] in a line: Hepatotoxicity in KM mouse assessed as effect on liver weight at 1.65 mmol/Kg, IG administered via gavage measured for 1 month. The format is toxicity, tissue-based. The following applies: in vivo, po, 730 h, time 1 months.
Series [5] in a line: Hepatotoxicity in KM mouse assessed as reduction in liver coefficient at 1.65 mmol/Kg, IG administered via gavage measured for 1 month. It is filed as toxicity, tissue-based. The settings on record: in vivo, po, 730 h, time 1 months.
Series [6] is described as follows: Hepatotoxicity in KM mouse assessed as reduction in plasma AST level at 1.65 mmol/Kg, IG administered via gavage measured for 1 month by automated biochemical analyzer. It is filed as toxicity. The following applies: in vivo, po, 730 h, time 1 months.
Series [7] can be described thus: Hepatotoxicity in KM mouse assessed as reduction in plasma ALT level at 1.65 mmol/Kg, IG administered via gavage measured for 1 month by automated biochemical analyzer. The format is toxicity. The settings on record: in vivo, po, 730 h, time 1 months.
Series [8] can be described thus: Hepatotoxicity in KM mouse assessed as reduction in plasma ALP level at 1.65 mmol/Kg, IG administered via gavage measured for 1 month by automated biochemical analyzer. The format is toxicity. The settings on record: in vivo, po, 730 h, time 1 months.
Series [9] in a line: Hepatotoxicity in KM mouse assessed as reduction in total bilirubin level in plasma at 1.65 mmol/Kg, IG administered via gavage measured for 1 month by automated biochemical analyzer. The settings on record: po, 730 h, time 1 months. The format is toxicity.
Series [10] relates to Mus musculus. Nature of the series: Antioxidant activity in KM mouse assessed as increase in SOD level in plasma at 1.65 mmol/Kg, IG administered via gavage measured for 1 month. The following applies: time 1.0 months. The format is functional, organism-based.
The test system of series [11] is Mus musculus. Nature of the series: Antioxidant activity in KM mouse assessed as increase in CAT level in plasma at 1.65 mmol/Kg, IG administered via gavage measured for 1 month. The format is functional, organism-based. The following applies: time 1.0 months.
Series [12] deals with Mus musculus. Nature of the series: Antioxidant activity in KM mouse assessed as increase in GSH level in plasma at 1.65 mmol/Kg, IG administered via gavage measured for 1 month. The format is functional, organism-based. The settings on record: time 1.0 months.
The subject of series [13] is Mus musculus. Nature of the series: Antioxidant activity in KM mouse assessed as reduction in MDA level in plasma at 1.65 mmol/Kg, IG administered via gavage measured for 1 month. It is filed as functional, organism-based. The settings on record: time 1.0 months.
In series [14] the test system is Mus musculus. Nature of the series: Antiinflammatory activity in KM mouse assessed as downregulation of TNF-alpha expression in liver tissue at 1.65 mmol/Kg, IG administered via gavage measured for 1 month by Western blot analysis. It is filed as functional, organism-based. The following applies: time 1.0 months. In general terms: In western blotting, separated proteins are transferred to a membrane and probed.

The test system of series [15] is Mus musculus. Nature of the series: Antiinflammatory activity in KM mouse assessed as downregulation of IL-6 expression in liver tissue at 1.65 mmol/Kg, IG administered via gavage measured for 1 month by Western blot analysis. It is filed as functional, organism-based. The following applies: time 1.0 months.
Series [16] is described as follows: Hepatotoxicity in KM mouse assessed as infiltration of inflammatory cells at 1.65 mmol/Kg, IG administered via gavage by H and E staining based analysis. The format is toxicity. The following applies: in vivo, po.
Series [17] is described as follows: Hepatotoxicity in KM mouse assessed as nuclear degeneration at 1.65 mmol/Kg, IG administered via gavage by H and E staining based analysis. It is filed as toxicity. The following applies: in vivo, po.
A short description of series [18]: Hepatotoxicity in KM mouse assessed as appearance of loose cytoplasm at 1.65 mmol/Kg, IG administered via gavage by H and E staining based analysis. The following applies: in vivo, po. The format is toxicity.
Series [19] concerns Mus musculus. Nature of the series: Hepatoprotective activity in KM mouse assessed as improvement in hepatocyte injury at 1.65 mmol/Kg, IG administered via gavage by H and E staining based analysis. The format is functional, organism-based.
For series [20], the system named is Mus musculus. Nature of the series: Upregulation of Nrf2 protein expression in liver of KM mouse at 1.65 mmol/Kg, IG administered via gavage measured after 1 month by Western blot analysis. The format is functional. The settings on record: time 1.0 months.
For series [21], the system named is Mus musculus. Nature of the series: Upregulation of HO-1 protein expression in liver of KM mouse at 1.65 mmol/Kg, IG administered via gavage measured after 1 month by Western blot analysis. The following applies: time 1.0 months. It is filed as functional.
In series [22] the test system is Mus musculus. Nature of the series: Downregulation of p-NF-kappaB p65 protein expression in liver of KM mouse at 1.65 mmol/Kg, IG administered via gavage measured after 1 month by Western blot analysis. The format is functional. The following applies: time 1.0 months.
For series [23], the system named is Mus musculus. Nature of the series: Induction of oxidative stress in KM mouse assessed as reduction in SOD level in plasma at 1.65 mmol/Kg, IG administered via gavage measured for 1 month. It is filed as functional, organism-based. The following applies: time 1.0 months.
Series [24] has as its system Mus musculus. Nature of the series: Induction of oxidative stress in KM mouse assessed as reduction in CAT level in plasma at 1.65 mmol/Kg, IG administered via gavage measured for 1 month. It is filed as functional, organism-based. The settings on record: time 1.0 months.
For series [25], the system named is Mus musculus. Nature of the series: Induction of oxidative stress in KM mouse assessed as reduction in GSH level in plasma at 1.65 mmol/Kg, IG administered via gavage measured for 1 month. It is filed as functional, organism-based. The settings on record: time 1.0 months.
The test system of series [26] is Mus musculus. Nature of the series: Induction of oxidative stress in KM mouse assessed as increase in MDA level in plasma at 1.65 mmol/Kg, IG administered via gavage measured for 1 month. The following applies: time 1.0 months. It is filed as functional, organism-based.
Series [27] has as its system Mus musculus. Nature of the series: Induction of inflammation in KM mouse assessed as upregulation of TNF-alpha expression in liver tissue at 1.65 mmol/Kg, IG administered via gavage measured for 1 month by Western blot analysis. The following applies: time 1.0 months. It is filed as functional.
Series [28] concerns Mus musculus. Nature of the series: Induction of inflammation in KM mouse assessed as upregulation of IL-6 expression in liver tissue at 1.65 mmol/Kg, IG administered via gavage measured for 1 month by Western blot analysis. It is filed as functional. The following applies: time 1.0 months.
Series [29] is described as follows: Hepatotoxicity in KM mouse assessed as large areas of hepatocytes swelling at 1.65 mmol/Kg, IG administered via gavage by H and E staining based analysis. It is filed as toxicity. The following applies: in vivo, po.
Series [30] in a line: Hepatotoxicity in KM mouse assessed as blurred edge dissolution at 1.65 mmol/Kg, IG administered via gavage by H and E staining based analysis. It is filed as toxicity. The settings on record: in vivo, po.
Series [31] relates to Mus musculus. Nature of the series: Upregulation of p-NF-kappaB p65 protein expression in liver of KM mouse at 1.65 mmol/Kg, IG administered via gavage measured after 1 month by Western blot analysis. The format is functional. The following applies: time 1.0 months.

As for `CC(C)(Oc1ccc(Cl)cc1)C(=O)Oc1ccc(-c2cc(=S)ss2)cc1`, the Activity result with Mus musculus [1] is “Dde”; in the series with Mus musculus [2], “Dde”; in series [3], “Non-Toxic”; in series [4] it was “Non-Toxic”; in series [5], “Non-Toxic”; in series [6] it was “Non-Toxic”. The Activity result in [7], in series [8], in series [9], in [16], in series [17] and in [18] was “Non-Toxic” throughout. In addition, the outcome with Mus musculus [10], with Mus musculus [11], in the series with Mus musculus [12], in the series with Mus musculus [13], in the series with Mus musculus [14] and in the series on Mus musculus [15] was Active. For the same compound, the result in the series on Mus musculus [19], in the series with Mus musculus [20], in the series on Mus musculus [21] and in the series on Mus musculus [22] was Active.

In the case of `CCOC(=O)C(C)(C)Oc1ccc(Cl)cc1` [CLOFIBRATE], the Activity result in series [3] was “Non-Toxic”; in series [4] it was “Toxic”; in series [5], “Toxic”; in series [6], “Toxic”; in series [7] it was “Toxic”; in series [8], “Toxic”. Moreover, the Activity result in series [9], in [29], in series [16], in series [17], in series [30] and in series [18] was “Toxic” throughout. For the same compound, the result in the series with Mus musculus [23], in the series with Mus musculus [24], in the series with Mus musculus [25], in the series on Mus musculus [26], in the series with Mus musculus [27] and in the series on Mus musculus [28] was Active. The outcome with Mus musculus [31] was Active.
